Results as given in US4092420A, “Novel soft N-chloroamino alcohol derivatives exhibiting antibacterial activity” (INTERx Research Corporation, priority 1977, dated 1978).
≈ marks a conversion by molar mass, not a printed value.

How the values were obtained:
[1] = test system: C. albicans; assay: Minimal inhibitory concentration (MIC), Example V; format: cell-based; conditions: Candida albicans
Description: MINIMAL INHIBITORY CONCENTRATION OF 2-AMINO-2-METHYL-1-PROPYL […]
(§1) THE ANTIBACTERIAL SCREEN - EXAMPLE V

[2] = test system: S. aureus; assay: Minimal inhibitory concentration (MIC), Example V; format: cell-based; conditions: Staphylococcus aureus
Description: as §1
(§2) THE ANTIBACTERIAL SCREEN - EXAMPLES W - Z (Autotiter IV)
(§3) (a) Compounds. All compounds to be screened are weighed (approx. 10 mg) on the day preceding the test date. Each compound is solubilized on the day of assay in appropriate solvent and diluted automatically in the Autotiter IV with distilled water (buffer can be employed here also).
(§4) Bacteria: Staphylococcus aureas Smith (or 209), Escherichia coli AB 1932-1, 1100/B22 and Vogel, Streptococcus pyogenes C203 Salmonella typhimurium 14028, Bacillus subtilis 6051-1, Klebsiella pneumoniae 10031, Pseudomonas aeruginosa 9027, Bordetella bronchiseptica 4617 and Staphylococcus epidermidis 12228.
(§5) (c) Inocula. Prior to utilization in the Autotiter IV, all bacteria are cultured for 18-20 hr. (37° C) in tryptose phosphate broth (TP), except, S. pyogenes C203, which is cultured in Brain Heart Infusion broth plus 10% normal horse serum. Immediately prior to testing, each culture is adjusted to an optical density of 0.10 (650 nm), employing a Bausch & Lomb Spectronic 20, and diluted subsequently into double strength medium to approximately 2 × 10^5 viable organisms per ml.
(§6) 1. An automated injector system dispenses 0.05 ml of diluent (sterile H2 O or buffer) to all cups of the autotiter trays from rows 2 through 7.
(§7) 2. The loops (for sequential dilutions of the compounds are moistened by immersion into 70% ethyl alcohol. After removal of excess alcohol by blotting, the loops are moved to the first row of cups in the autotray containing 0.10 ml of the compound to be diluted and tested (usually, this initial concentration is 500 to 1000 mcg/ml, but can be varied upward or downward). The loops are lowered and sequentially transfer the diluted solutions of the compound through row 7.
(§8) Immediately after each dilution is made, each cup is automatically inoculated with 0.05 ml of the appropriate test organism. This inoculation derives from a second injector system containing the organism in double-strength medium. The total operation consists of the automatic dilution of a single compound in each of 8 rows of the Autotiter try.
(§9) After these operations, we reverse the tray and a second compound is diluted over the other one-half of the tray and inoculated, subsequently, with 8 organisms. Thus, for each Autotiter Tray, two compounds are screened against 8 different organisms at dilutions ranging from 1:2 to 1:128.
(§10) (e) Incubation. The inoculated Autotiter trays are incubated at 37° C for 18 - 20 hr. At the end of this period, each tray is examined for the presence or absence of growth (turbidity). The lowest concentration of the compound inhibiting growth is recorded as the minimal inhibitory concentration (MIC).

[3] = test system: P. aeruginosa; assay: Minimal inhibitory concentration (MIC), Example V; format: cell-based; conditions: Pseudomonas aeruginosa
Description: as §1, §2, §3, §4, §5, §6, §7, §8, §9, §10

[4] = test system: K. pneumoniae; assay: Minimal inhibitory concentration (MIC), Example V; format: cell-based; conditions: Klebsiella pneumoniae
Description: (§11) MINIMAL INHIBITORY CONCENTRATION OF 2-AMINO-2-METHYL-1-PROPYL
(§12) ^a Minimal inhibitory concentration expressed in parts per million
(§13) sequence inhibited the test organism at the higher concentrations.
as §1
Klebsiella pneumoniae ATCC# 10031
as §2, §3, §4, §5, §6, §7, §8, §9, §10

[5] = Solubility in 30% methanol: 0.1 M sodium dihydrogen phosphate, pH 7.0; format: physicochemical; conditions: 0.1 m nah2po4, pH 7, organic solvent or mixture, Concentration (footnote: Solubility in 30% methanol: 0.1 M sodium dihydrogen phosphate, pH 7.0)
[6] = test system: A. niger; assay: Minimal inhibitory concentration (MIC), Example V; format: cell-based; conditions: Aspergillus niger
Description: as §11, §12, §13, §1

[7] = test system: T. mentagrophytes; assay: Minimal inhibitory concentration (MIC), Example V; format: cell-based; conditions: Trichophyton mentagrophytes
Description: as §11, §12, §13, §1

[8] = test system: E. coli; assay: Minimal inhibitory concentration (MIC), Example V; format: cell-based; conditions: Escherichia coli
Description: as §11, §12, §13, §1

[9] = test system: S. pyogenes; assay: Minimal inhibitory concentration (MIC), Example V; format: cell-based; conditions: Streptococcus pyogenes
[10] = test system: B. bronchiseptica; assay: Contact germicidal efficiency (sterilization time); format: cell-based, Bordetella bronchiseptica
Description: (§14) CONTACT GERMICIDAL EFFICIENCY OF N-CHLORAMINES AS A FUNCTION
(§15) ^a Time intervals screened 0.5, 1, 2, 3, 4 and 5 minutes.
(§16) ^a Time intervals screened 0.5, 1, 2, 3, 4, 5, 6, 7, 8, 9 and 10
(§17) ^a Time intervals screened 0.5, 1, 2, 3, 4, and 5 minutes.
(§18) ^b Time intervals screened 0.5, 1, 2, 3, 4, 5, 6, 7, 8, 9 and 10
(§19) Immediately preceding the screen, the compound is weighed and diluted with a buffer or other solvent to give the final concentration desired. The buffer or solvent chosen depends on the conditions of the screen and could be one of the following: 0.1 M NaOAc, pH 4.6; 0.1 M NaH2 PO4, pH 7.0; 0.1 M Na2 B4 O7, pH 8.8; 35% methanol in one of the aforementioned buffers; 10% Triton × 100 in buffer, etc.
(§20) The positive chlorine concentration of the test solution is then determined iodometrically.
(§21) Media used for the Screen are Nutrient Broth, BBL# 11479 and Nutrient Agar, BBL# 11472 prepared according to label directions. The broth is dispensed in 75 ml amounts of flasks for overnight cultures and in 5 ml amounts to culture tubes for subculturing during the Screen. Agar plates are prepared as usual.
(§22) Overnight cultures are prepared by inoculating from stock cultures into the 75 ml flasks of nutrient broth and incubating for 15 hours at 37° C.
(§23) The iodometrically characterized test solution is dispensed in 5 ml amounts to seven small stoppered flasks. The organisms are screened one at a time as follows:
(§24) A 0.2 ml portion of the overnight culture is inoculated into 5 ml of 0.9% NaCl for use in controls. A 0.2 ml portion of the overnight culture is inoculated into a flask containing 5 ml of the test solution, an automatic timer is simultaneously triggered and the solution mixed. At time intervals of 30 seconds, 1, 2, 3, 4, 5, 6, 7, 8, 9, and 10 minutes a loopful of the inoculated solution is subcultured into 5 ml of sterile nutrient broth and mixed by a Vortex Genie Mixer, the high dilution serving to stop the action of the compound. At the end of the ten minute screen, the entire procedure is repeated for each of the remaining six organisms. All of the subculture tubes are incubated at 37° C and checked for signs of growth by turbidity at 24 hr., 48 hr., 3, 5, and 7 days. The earliest subculture time at which no growth is present in the subculture tube is considered the endpoint and is recorded as that time, e.g., 7 minutes.
(§25) The test solution is prepared and characterized as above but is made up at twice the concentration desired. The solution is diluted 1:1 with Rehydrated Tissue Culture Dessicated Horse Serum, Difco #5357-72 and dispensed in a 5 ml amount to a small flask. The mixture is incubated at Room Temperature for 30 minutes to allow denaturation of the compound by the serum and then screened as above.
(§26) The 5 ml mixture of serum and test solution are prepared in sequence to allow as close to 30 minutes as possible before the beginning of the screen of each organism.
as §4

[11] = test system: S. epidermidis; assay: Contact germicidal efficiency (sterilization time); format: cell-based, Staphylococcus epidermidis
Description: as §14, §15, §16, §17, §18, §19, §20, §21, §22, §23, §24, §25, §26, §4

[12] = test system: P. aeruginosa; assay: Contact germicidal efficiency (sterilization time); format: cell-based, Pseudomonas aeruginosa
Description: as §14, §15, §16, §17, §18, §19, §20, §21, §22, §23, §24, §25, §26, §4

[13] = test system: K. pneumoniae; assay: Contact germicidal efficiency (sterilization time); format: cell-based, Klebsiella pneumoniae
Description: as §14, §15, §16, §17, §18, §19, §20, §21, §22, §23, §24, §25, §26, §4

[14] = Example X, pH 4.6, no horse serum, IV c 404 ppm (69 PPMCl+), IV g 489 ppm (143 PPMCl+)
[15] = Example X, pH 7.0, no horse serum, IV c 1886 ppm (323 PPMCl+), IV g 409 ppm (120 PPMCl+)
[16] = Example X, pH 9.3, no horse serum, IV c 1704 ppm (292 PPMCl+), IV g 319 ppm (94 PPMCl+)
[17] = Example Z, pH 4.6, absence of horse serum, IV j 79 ppm (21 PPMCl+), IV k 5800 (1057), IV l 1112 (209)
[18] = Example Z, S. pidermidis, pH 4.6, absence of horse serum, IV j 79 ppm (21 PPMCl+), IV k 5800 (1057), IV l 1112 (209)

Row | SMILES | MIC [1] [µg/mL] | MIC [2] [µg/mL] | MIC [3] [µg/mL] | MIC [4] [µg/mL] | MIC [6] [µg/mL] | MIC [7] [µg/mL] | MIC [8] [µg/mL] | MIC [9] [µg/mL] | other results
1 | CCCC(=O)OCC(C)(C)N.Cl [III b, 2-Amino-2-methyl-1-propyl butyrate hydrochloride] | > 62.5 | > 62.5 | > 62.5 | > 62.5 | > 62.5 | > 62.5 | > 62.5 | > 62.5 | solubility [5]: 1070 µg/mL
2 | CCCCCC(=O)OCC(C)(C)N.Cl [III d, 2-Amino-2-methyl-1-propyl hexanoate hydrochloride] | > 62.5 | > 62.5 | 62.5 | > 62.5 | > 62.5 | > 62.5 | > 62.5 | 62.5 | solubility [5]: 1040 µg/mL
3 | CC(=O)OCC(C)(C)N(Cl)Cl [IV a, 2-N,N-Dichloroamino-2-methyl-1-propyl acetate] | > 62.5 | > 62.5 | 62.5 | > 62.5 | > 62.5 | 62.5 | > 62.5 | 62.5 | –
4 | CCCC(=O)OCC(C)(C)NCl [IV b, 2-N-Chloroamino-2-methyl-1-propyl butyrate] | > 62.5 | > 62.5 | > 62.5 | > 62.5 | > 62.5 | > 62.5 | > 62.5 | > 62.5 | –
5 | CCCCCC(=O)OCC(C)(C)NCl [IV d, 2-N-Chloroamino-2-methyl-1-propyl hexanoate] | > 62.5 | > 62.5 | > 62.5 | > 62.5 | > 62.5 | > 62.5 | > 62.5 | > 62.5 | –
6 | CCCCCCCC(=O)OCC(C)(C)NCl [IV e, 2-N-Chloroamino-2-methyl-1-propyl octanoate] | > 62.5 | > 62.5 | > 62.5 | > 62.5 | > 62.5 | > 62.5 | > 62.5 | > 62.5 | –
7 | CCCC(=O)OCC(C)(C)N(Cl)Cl [IV f, 2-N,N-Dichloroamino-2-methyl-1-propyl butyrate] | > 62.5 | > 62.5 | 62.5 (≈ 274 µM) | > 62.5 | > 62.5 | > 62.5 | > 62.5 | 62.5 (≈ 274 µM) | –
8 | CC(C)(C)C(=O)OCC(C)(C)N(Cl)Cl [IV g, 2-N,N-Dichloroamino-2-methyl-1-propyl 2,2-dimethylproprionate] | > 125 | 250 (≈ 1030 µM) | 250 (≈ 1030 µM) | > 125 | > 125 | > 125 | > 125 | 250 (≈ 1030 µM) | Sterilization Time [10, 14]: 1 min; Sterilization Time [10, 15]: 2 min; Sterilization Time [10, 16]: 2 min; Sterilization Time ([11]; Example X, S. epidermidis, pH 4.6, no horse serum, IV c 404 ppm (69 PPMCl+), IV g 489 ppm (143 PPMCl+)): 0.5 min; Sterilization Time ([11]; Example X, S. epidermidis, pH 7.0, no horse serum, IV c 1886 ppm (323 PPMCl+), IV g 409 ppm (120 PPMCl+)): 2 min; Sterilization Time ([11]; Example X, S. epidermidis, pH 9.3, no horse serum, IV c 1704 ppm (292 PPMCl+), IV g 319 ppm (94 PPMCl+)): 2 min; Sterilization Time [12, 14]: 0.5 min; Sterilization Time [12, 15]: 0.5 min; Sterilization Time [12, 16]: 0.5 min; Sterilization Time [13, 14]: 0.5 min; Sterilization Time [13, 15]: 3 min; Sterilization Time [13, 16]: 2 min
9 | CCCCCC(=O)OCC(C)(C)N(Cl)Cl [IV h, 2-N,N-Dichloroamino-2-methyl-1-propyl hexanoate] | > 62.5 | > 62.5 | > 62.5 | > 62.5 | > 62.5 | 62.5 (≈ 244 µM) | > 62.5 | 62.5 (≈ 244 µM) | –
10 | CCCCCCCC(=O)OCC(C)(C)N(Cl)Cl [IV i, 2-N,N-Dichloroamino-2-methyl-1-propyloctanoate] | > 62.5 | 62.5 (≈ 220 µM) | > 62.5 | > 62.5 | > 62.5 | 62.5 (≈ 220 µM) | > 62.5 | 62.5 (≈ 220 µM) | –
11 | CC(C)(COC(=O)c1cccnc1)N(Cl)Cl [IV j, 2-N,N-Dichloroamino-2-methyl-1-propyl nicotinate] | – | – | – | – | – | – | – | – | Sterilization Time [10, 17]: 4 min; Sterilization Time [11, 18]: 3 min; Sterilization Time [12, 17]: 2 min; Sterilization Time [13, 17]: 1 min
12 | C[n+]1cccc(C(=O)OCC(C)(C)N(Cl)Cl)c1 [IV l, 2-N,N-Dichloroamino-2-methyl-1-propyl nicotinate methylfluorosulfonate] | – | – | – | – | – | – | – | – | Sterilization Time [10, 17]: 5 min; Sterilization Time [11, 18]: 3 min; Sterilization Time [12, 17]: 3 min; Sterilization Time [13, 17]: 5 min
